Measured values from the supplement of paper PMC10883282.

Experiments:
Assay in all cases: standardised AUC of viability dose-response curve (72 h) (fraction (0-1)); higher = less growth inhibition (more resistant)
[1] = tested on: KHOS-240S
Summary of the method: (§1)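 In 384-well plates, sarcoma cell lines were exposed for 72 h, in triplicate, to 2.5 µl of a 1:3 compound dilution series whose compound-plate concentrations ran from 10 mM to 0.0002 mM. Four-parameter log-logistic models were fitted per drug and cell line to ATPLite viability, scaled 1 (full) to 0 (none). From these fits, a modified drexplorer computeAUC gave the standardised area under the curve in log-dose space. Here 1 marks no response and 0 full response.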

[2] = tested on: A204
Summary of the method: as §1

[3] = tested on: SK-LMS-1
Summary of the method: as §1

[4] = tested on: SK-ES-1
Summary of the method: as §1

[5] = tested on: SW982
Summary of the method: as §1

[6] = tested on: G401
Summary of the method: as §1

[7] = tested on: HS729
Summary of the method: as §1

[8] = tested on: MES-SA
Summary of the method: as §1

[9] = tested on: SW1353
Summary of the method: as §1

[10] = tested on: SW684
Summary of the method: as §1

[11] = tested on: SW872
Summary of the method: as §1

[12] = tested on: RD-ES
Summary of the method: as §1

[13] = tested on: SYO-1
Summary of the method: as §1

[14] = tested on: VA-ES-BJ
Summary of the method: as §1

[15] = tested on: HT1080
Summary of the method: as §1

[16] = tested on: RD
Summary of the method: as §1

[17] = tested on: KHOS-NP
Summary of the method: as §1

| SMILES | standardised AUC [1] | standardised AUC [2] | standardised AUC [3] | standardised AUC [4] | standardised AUC [5] | standardised AUC [6] | standardised AUC [7] | standardised AUC [8] | standardised AUC [9] | standardised AUC [10] | standardised AUC [11] | standardised AUC [12] | standardised AUC [13] | standardised AUC [14] | standardised AUC [15] | standardised AUC [16] | standardised AUC [17] |
| --- | --- | --- | --- | --- | --- | --- | --- | --- | --- | --- | --- | --- | --- | --- | --- | --- | --- |
| C1=N/C2=N/c3ccc(OCCN4CCCC4)c(c3)COC/C=C/COCc3cccc(c3)C(=C1)N2 [PACRITINIB] | 0.811 | 0.736 | 0.897 | 0.714 | 0.733 | 0.793 | 0.855 | 0.787 | 0.836 | 0.758 | 0.786 | 0.792 | 0.747 | 0.753 | 0.853 | 0.781 | 0.898 |
| NC(=O)c1cnc2[nH]ccc2c1N[C@@H]1[C@@H]2CC3C[C@H]1C[C@@](O)(C3)C2 [PEFICITINIB] | 0.955 | 0.912 | 0.985 | 0.938 | 0.929 | 1 | 0.988 | 0.949 | 1 | 0.988 | 0.977 | 0.983 | 0.888 | 0.995 | 1 | 1 | 0.982 |
| CCCCCCCCCCCCCCCCCCOP(=O)([O-])OC1CC[N+](C)(C)CC1 [PERIFOSINE] | 0.983 | 0.982 | 0.941 | 0.952 | 0.99 | 0.994 | 0.924 | 0.954 | 0.962 | 0.999 | 0.915 | 0.994 | 0.946 | 0.968 | 0.966 | 0.996 | 0.966 |
| FC(F)(F)c1ccc(CNc2ccc(Cc3c[nH]c4ncc(Cl)cc34)cn2)cn1 [PEXIDARTINIB] | 0.975 | 0.837 | 0.979 | 0.97 | 1 | 0.946 | 0.903 | 0.978 | 0.935 | 0.974 | 0.939 | 0.991 | 0.861 | 0.976 | 0.953 | 1 | 0.955 |
| Cc1cn(-c2cc(NC(=O)c3ccc(C)c(Nc4nccc(-c5cnccn5)n4)c3)cc(C(F)(F)F)c2)cn1 [RADOTINIB] | 0.988 | 0.894 | 1 | 0.999 | 0.995 | 0.977 | 0.976 | 1 | 1 | 1 | 0.967 | 0.996 | 0.929 | 1 | 0.997 | 0.992 | 0.992 |
| CO[C@H]1C[C@@H]2CC[C@@H](C)[C@@](O)(O2)C(=O)C(=O)N2CCCC[C@H]2C(=O)O[C@H]([C@H](C)C[C@@H]2CC[C@@H](O)[C@H](OC)C2)CC(=O)[C@H](C)/C=C(\C)[C@@H](O)[C@@H](OC)C(=O)[C@H](C)C[C@H](C)/C=C/C=C/C=C/1C [RAPAMYCIN] | 0.815 | 0.607 | 0.665 | 0.63 | 0.724 | 0.814 | 0.944 | 0.489 | 0.856 | 0.763 | 0.729 | 0.778 | 0.846 | 0.589 | 0.916 | 0.712 | 0.989 |
| C=CC(=O)Nc1cccc(Nc2nc(Nc3ccc(N4CCN(C(C)=O)CC4)cc3OC)ncc2C(F)(F)F)c1 [ROCILETINIB] | 0.929 | 0.912 | 0.893 | 0.831 | 0.906 | 0.886 | 0.878 | 0.874 | 0.889 | 0.937 | 0.912 | 0.857 | 0.867 | 0.921 | 0.973 | 0.899 | 0.975 |
| CN(C)C[C@@H]1CCn2cc(c3ccccc32)C2=C(C(=O)NC2=O)c2cn(c3ccccc23)CCO1 [RUBOXISTAURIN] | 0.99 | 0.926 | 0.929 | 0.911 | 0.947 | 0.954 | 0.969 | 0.951 | 0.947 | 0.991 | 0.953 | 0.945 | 0.861 | 0.946 | 0.995 | 0.99 | 0.99 |
| CN1CCN(CCOc2cc(OC3CCOCC3)c3c(Nc4c(Cl)ccc5c4OCO5)ncnc3c2)CC1 [SARACATINIB] | 0.884 | 0.906 | 0.908 | 0.931 | 0.821 | 0.918 | 0.849 | 0.943 | 0.865 | 0.977 | 0.858 | 0.955 | 0.851 | 0.938 | 0.981 | 0.871 | 0.951 |
| CNC(=O)c1cc(Oc2ccc(NC(=O)Nc3ccc(Cl)c(C(F)(F)F)c3)cc2)ccn1 [SORAFENIB] | 0.93 | 0.756 | 0.917 | 0.949 | 0.975 | 0.916 | 0.943 | 0.925 | 0.951 | 0.936 | 0.978 | 0.966 | 0.841 | 0.95 | 0.944 | 0.951 | 0.907 |
| CCN(c1cc(-c2ccc(CN3CCOCC3)cc2)cc(C(=O)NCc2c(C)cc(C)[nH]c2=O)c1C)C1CCOCC1 [TAZEMETOSTAT] | 0.971 | 0.998 | 0.977 | 0.96 | 0.985 | 0.989 | 0.946 | 0.976 | 0.973 | 0.998 | 0.986 | 0.985 | 0.971 | 1 | 0.988 | 0.997 | 0.963 |
| Cc1cccc(-c2[nH]c(CNc3ccccc3F)nc2-c2ccc3ncnn3c2)n1 [VACTOSERTIB] | 0.957 | 0.982 | 0.995 | 0.997 | 0.995 | 0.993 | 0.917 | 0.991 | 0.992 | 0.959 | 1 | 0.99 | 0.911 | 1 | 1 | 0.996 | 0.989 |
| C[C@@H]1COC(Nc2ccc3ncnc(Nc4ccc(OCc5nccs5)c(Cl)c4)c3c2)=N1 [VARLITINIB] | 0.975 | 0.918 | 0.987 | 0.97 | 0.975 | 0.953 | 0.955 | 0.954 | 0.928 | 0.994 | 0.962 | 0.989 | 0.97 | 0.994 | 0.974 | 1 | 0.992 |
| CC[C@@H]1C(=O)N(C)c2cnc(Nc3ccc(C(=O)N[C@H]4CC[C@H](N5CCN(CC6CC6)CC5)CC4)cc3OC)nc2N1C(C)C [VOLASERTIB] | 0.534 | 0.647 | 0.635 | 0.52 | 0.547 | 0.653 | 0.766 | 0.555 | 0.723 | 0.693 | 0.578 | 0.504 | 0.453 | 0.531 | 0.601 | 0.533 | 0.642 |
